Drawing on PMC3060404 (Chembiochem : a European journal of chemical biology, 2010), this text covers IC50 for 2 compounds.

In general, IC50 refers to the concentration that inhibits the measured activity by half.

What all share (assay type): biochemical
Experiment [1] addresses PRMT6 (Homo sapiens, UniProt Q96LA8). The experiment in a line: PRMT6 IC50 assay. The conditions noted are these: read-out: IC50 for PRMT6; 500 nM PRMT6, 15 µM 14C-methyl-SAM, 30 µM histone H3, 37 °C.
For experiment [2], the system named is PRMT3. In words: PRMT3 IC50 assay. The conditions noted are these: read-out: IC50 for PRMT3; 500 nM PRMT3, 15 µM 14C-methyl-SAM, 250 µM RGG, 37 °C.
For experiment [3], the target named is PRMT1 (Homo sapiens, UniProt Q99873). The experiment in a line: PRMT1 IC50 assay. The conditions noted are these: read-out: IC50 for PRMT1; 200 nM PRMT1, 15 µM 14C-methyl-SAM, 25 µM AcH4-21, 37 °C.
Sequence of PRMT1 (Q99873 1-353 isoform Q99873-3): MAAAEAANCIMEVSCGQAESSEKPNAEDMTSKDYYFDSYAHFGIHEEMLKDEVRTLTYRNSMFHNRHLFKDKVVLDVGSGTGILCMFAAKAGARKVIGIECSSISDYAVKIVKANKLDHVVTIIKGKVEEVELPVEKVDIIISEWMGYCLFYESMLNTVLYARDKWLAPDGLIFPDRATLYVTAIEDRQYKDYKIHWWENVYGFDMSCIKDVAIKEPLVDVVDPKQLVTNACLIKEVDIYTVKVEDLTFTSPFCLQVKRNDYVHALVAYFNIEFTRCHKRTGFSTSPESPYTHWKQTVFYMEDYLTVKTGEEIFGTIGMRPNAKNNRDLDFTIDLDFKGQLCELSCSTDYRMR
Experiment [4] deals with CARM1/PRMT4. The experiment in a line: CARM1/PRMT4 IC50 assay. Particulars: read-out: IC50 for PRMT4; 150 nM CARM1/PRMT4, 15 µM 14C-methyl-SAM, 10 µM histone H3, 30 °C.

Sequence of PRMT6 (Q96LA8 whole entry, species assumed): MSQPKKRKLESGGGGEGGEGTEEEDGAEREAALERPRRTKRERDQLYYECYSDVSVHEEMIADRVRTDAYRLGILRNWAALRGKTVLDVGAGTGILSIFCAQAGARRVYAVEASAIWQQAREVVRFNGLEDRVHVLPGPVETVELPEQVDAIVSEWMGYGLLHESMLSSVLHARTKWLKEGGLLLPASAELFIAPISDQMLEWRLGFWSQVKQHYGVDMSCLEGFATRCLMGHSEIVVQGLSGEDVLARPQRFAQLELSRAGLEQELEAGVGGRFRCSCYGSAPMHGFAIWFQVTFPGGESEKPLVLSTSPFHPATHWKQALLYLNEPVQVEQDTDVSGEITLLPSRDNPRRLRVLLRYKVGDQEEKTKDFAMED

On to `NC(=O)[C@H](CCCN=C(N)CCl)NC(=O)c1ccccc1` [Cl-amidine], for which the IC50 in experiment [1] is > 500 µM; in experiment [2], > 500 µM; in experiment [3], 225 ± 10 µM; in experiment [4], > 500 µM.
Take `NC(=O)[C@H](CCCN=C(N)CF)NC(=O)c1ccccc1` [F-amidine]: the IC50 in experiment [1], in experiment [2], in experiment [3] and in experiment [4] was > 500 µM in each case.
